The text below walks through data of PMC8880061, “Synthesis of (+)-(R)-Tiruchanduramine” (Molecules, 2022).

This test has as its target almond β-glucosidase. In words: glycosidase inhibition assay with p-nitrophenyl substrate, commercial (Sigma) enzyme. In kind it is biochemical, Prunus dulcis.

The IC50 is the midpoint of a concentration-inhibition curve. Higher therefore signals weaker potency. The compound `NC1=NC[C@@H](CCNC(=O)c2cc3c(cn2)[nH]c2ccccc23)N1` [compound 1, (+)-(R)-Tiruchanduramine] had a half-maximal inhibitory concentration (IC50) of 1000 µM.
